Test results from US20170314205A1, “Microorganism Control System and Method of Using the Same” (Ecolab USA Inc., priority 2014, published 2017).

Test: Effect of acid addition on pH and available chlorine of urea-stabilized halogen-containing bactericide
Assay type: physicochemical
Conditions: for Solution pH / Available chlorine: final 30 ml; for Available chlorine: blank 2550
Method: Then, 5 beakers were provided and separately added with 1 ml of the prepared urea-stabilized halogen-containing bactericide. After that, 29 ml of water was added to the first beaker for dilution (blank control), while the other 4 beakers were separately added with 20% sulfuric acid (0.5 ml or 1.0 ml) or 20% citric acid (1.0 ml or 2.0 ml), and added with water to reach a final volume of 30 ml. Finally, pH values and available chlorine contents (ppm) of solutions in the 5 beakers were measured.
Further, 10% aminosulfonic acid (which was used to replace sulfuric acid or citric acid, which dosage was 1.1 ml or 1.24 ml) was used to repeat the above experiments. […] In addition, after aminosulfonic acid was added, pH values and available chlorine contents (ppm) in solutions were measured, and after standing for 40 min, 120 min, and 240 min, available chlorine contents (ppm) of solutions were measured again. […]

[1] = acid volume 1.0 ml to 1 ml urea-stabilized bactericide (12.5% hypochlorite)
[2] = acid volume 2.0 ml to 1 ml urea-stabilized bactericide (12.5% hypochlorite)
[3] = acid volume 0.5 ml to 1 ml urea-stabilized bactericide (12.5% hypochlorite)

Structure (SMILES): O=C(O)CC(O)(CC(=O)O)C(=O)O [20% citric acid, citric acid, reference compound]
- Solution pH [1]: 7.75
- Available chlorine [1]: 1250 ppm
- Solution pH [2]: 3.65
- Available chlorine [2]: 725 ppm

Structure (SMILES): O=S(=O)(O)O [20% sulfuric acid, sulfuric acid, reference compound]
- Solution pH [3]: 7.35
- Available chlorine [3]: 750 ppm
- Solution pH [1]: 2.15
- Available chlorine [1]: 455 ppm

Structure (SMILES): NS(=O)(=O)O [Aminosulfonic acid, aminosulfonic acid]
- Solution pH after mixing (10% acid 1.1 ml to 1 ml urea-stabilized bactericide (8.5% hypochlorite)): 8.46
- Available chlorine after mixing (10% acid 1.1 ml, 0 min): 1275 ppm
- Available chlorine after mixing (10% acid 1.1 ml, 40 min): 1275 ppm
- Available chlorine after mixing (10% acid 1.1 ml, 120 min): 1325 ppm
- Available chlorine after mixing (10% acid 1.1 ml, 240 min): 1400 ppm
- Solution pH after mixing (10% acid 1.24 ml to 1 ml urea-stabilized bactericide (8.5% hypochlorite)): 5.96
- Available chlorine after mixing (10% acid 1.24 ml, 0 min): 1300 ppm
- Available chlorine after mixing (10% acid 1.24 ml, 40 min): 1325 ppm
- Available chlorine after mixing (10% acid 1.24 ml, 120 min): 1475 ppm
- Available chlorine after mixing (10% acid 1.24 ml, 240 min): 1250 ppm
- Time for which available chlorine content of solution is maintained (urea-stabilized bactericide with pH regulated by aminosulfonic acid): at least 240 min
